Experimental data reported in patent US20230295197A1, “STAT5 and STAT6 Degraders and Uses Thereof” (REGENTS OF THE UNIVERSITY OF MICHICAN, priority 2022, published 2023).
Where two headings read alike, the source gives them in different places. *1 amine or outer side, *2 acyl side, *3 side chain or, on linkers, in order; H or OH if unused. Where a SMILES comes first, the peptide text is derived from it. [ ]: non-standard residue; d: D form. The star is where a group is joined. Benzothienyl2CO(5-CF2PO3H2) = O=C(c1cc2cc(C(F)(F)P(=O)(O)O)ccc2s1)*; βAla(N-(4-Br-phenyl)) = O=C(CCN(c1ccc(Br)cc1)[*:1])[*:2]; NHBn(4-(4-Me-thiazol-5-yl)) = Cc1ncsc1-c1ccc(CN*)cc1; NH(CH2)8CO = O=C(CCCCCCCCN[*:1])[*:2]; Hyp = O=C(O)[C@@H]1C[C@@H](O)CN1; Tle = CC(C)(C)[C@H](N)C(=O)O

Molecular target: T1, STAT6 (Homo sapiens, UniProt P42226)
T1 construct: endogenous in cells; host or cells: MOLM-16, KU-812, SKNO1, MB231, L1236
T1 sequence (P42226 1-847): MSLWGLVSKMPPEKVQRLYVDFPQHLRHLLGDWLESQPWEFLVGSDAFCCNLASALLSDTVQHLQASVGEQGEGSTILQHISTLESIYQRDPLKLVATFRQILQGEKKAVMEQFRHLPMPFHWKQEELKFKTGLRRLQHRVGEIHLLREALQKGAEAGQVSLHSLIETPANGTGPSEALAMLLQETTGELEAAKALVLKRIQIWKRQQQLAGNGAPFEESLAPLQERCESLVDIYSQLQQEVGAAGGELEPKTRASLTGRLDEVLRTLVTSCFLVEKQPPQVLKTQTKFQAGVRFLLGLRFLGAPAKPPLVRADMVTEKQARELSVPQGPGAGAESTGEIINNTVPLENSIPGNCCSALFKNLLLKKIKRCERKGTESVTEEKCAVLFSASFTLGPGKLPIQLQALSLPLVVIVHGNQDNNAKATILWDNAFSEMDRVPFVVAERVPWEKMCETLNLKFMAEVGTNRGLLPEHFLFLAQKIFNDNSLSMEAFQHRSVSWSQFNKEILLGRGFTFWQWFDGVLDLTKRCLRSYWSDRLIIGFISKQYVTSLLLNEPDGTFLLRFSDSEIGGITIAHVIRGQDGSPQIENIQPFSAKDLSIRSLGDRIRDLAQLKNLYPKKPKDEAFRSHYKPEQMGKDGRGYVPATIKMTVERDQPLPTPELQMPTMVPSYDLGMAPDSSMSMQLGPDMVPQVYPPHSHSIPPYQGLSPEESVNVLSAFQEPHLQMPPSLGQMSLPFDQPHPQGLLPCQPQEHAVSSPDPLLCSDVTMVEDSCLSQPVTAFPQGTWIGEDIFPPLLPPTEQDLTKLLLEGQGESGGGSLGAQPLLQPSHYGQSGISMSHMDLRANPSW
Assay: Immunoblotting (Western blot) analysis of STAT6 degradation efficiency of degraders in treated cells
Format: cell-based
Method in brief: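 Read-out: fluorescent IRDye 680RD/800CW secondaries imaged on an infrared scanner, with band intensities quantified by densitometry and GAPDH serving as loading control. Samples were RIPA lysates, BCA-normalised, from ~1 million treated cells.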

[1] = MOLM-16 cells, class symbols, read-out: DC50 S6 MOLM-16
[2] = L1236 cells, read-out: DC50 S6 L1236

DC50 [1] [µM] | Structure (SMILES) | other results
> 10 | CC(C)(C)[C@H](NC(=O)c1cc2cc(C(F)(F)P(=O)(O)O)ccc2s1)C(=O)N1Cc2cc(OCC(=O)NCCCCCC#Cc3cccc4c3C(=O)N(C3CCC(=O)NC3=O)C4=O)ccc2C[C@H]1C(=O)N1CCC[C@H](c2ccccc2)C1 (stereo partly drawn) [Compound 557, ((2-(((2S)-1-((3S)-7-(2-((7-(2-(2,6-dioxopiperidin-3-yl)-1,3-dioxoisoindolin-4-yl)hept-6-yn-1-yl)amino)-2-oxoethoxy)-3-((R)-3-phenylpiperidine-1-carbonyl)-3,4-dihydroisoquinolin-2(1H)-yl)-3,3-dimethyl-1-oxobutan-2-yl)carbamoyl)benzo[b]thiophen-5-yl)difluoromethyl)phosphonic acid] | 
 | Cc1ncsc1-c1ccc(CNC(=O)[C@@H]2C[C@@H](O)CN2C(=O)[C@@H](NC(=O)CCCCCCCCNC(=O)CO[C@@H]2C[C@@H](C(=O)N(C)c3ccc(Br)cc3)N(C(=O)[C@@H](NC(=O)c3cc4cc(C(F)(F)P(=O)(O)O)ccc4s3)C(C)(C)C)C2)C(C)(C)C)cc1 [Compound 420, ((2-(((S)-1-((2S,4R)-2-((4-bromophenyl)(methyl)carbamoyl)-4-(2-((9-(((S)-1-((2S,4R)-4-hydroxy-2-((4-(4-methylthiazol-5-yl)benzyl)carbamoyl)pyrrolidin-1-yl)-3,3-dimethyl-1-oxobutan-2-yl)amino)-9-oxononyl)amino)-2-oxoethoxy)pyrrolidin-1-yl)-3,3-dimethyl-1-oxobutan-2-yl)carbamoyl)benzo[b]thiophen-5-yl)difluoromethyl)phosphonic acid] | DC50 [2]: > 10 µM; DC50 (MB231 cells, read-out: DC50 S6 MB231): > 10 µM
< 0.1 | CC(C)(C)[C@H](NC(=O)c1cc2cc(C(F)(F)P(=O)(O)O)ccc2s1)C(=O)N1C[C@@H](OCCCCC#Cc2cccc3c2CN(C2CCC(=O)NC2=O)C3=O)C[C@H]1C(=O)N1CCO[C@H](c2ccccc2)C1 (stereo partly drawn) [Compound 594, ((2-(((2S)-1-((2S,4S)-4-((6-(2-(2,6-dioxopiperidin-3-yl)-1-oxoisoindolin-4-yl)hex-5-yn-1-yl)oxy)-2-((R)-2-phenylmorpholine-4-carbonyl)pyrrolidin-1-yl)-3,3-dimethyl-1-oxobutan-2-yl)carbamoyl)benzo[b]thiophen-5-yl)difluoromethyl)phosphonic acid] | 
 | CC(C)(C)[C@H](NC(=O)c1cc2cc(C(F)(F)P(=O)(O)O)ccc2s1)C(=O)N1C[C@@H](OCCCCCCC#Cc2cccc3c2CN(C2CCC(=O)NC2=O)C3=O)C[C@H]1C(=O)N1CCOC(c2cccs2)C1 (stereo partly drawn) [Compound 611] | DC50 (MOLM-16 cells, numeric bound, read-out: DC50 S6 MOLM-16): > 0.3 µM
 | Cc1ncsc1-c1ccc(CNC(=O)[C@@H]2C[C@@H](O)CN2C(=O)[C@@H](NC(=O)CCCCCCCCNC(=O)CCN(C(=O)[C@@H]2CCCN2C(=O)[C@@H](NC(=O)c2cc3cc(C(F)(F)P(=O)(O)O)ccc3s2)C(C)(C)C)c2ccc(Br)cc2)C(C)(C)C)cc1 [Compound 397] ({Benzothienyl2CO(5-CF2PO3H2)}-[Tle]P[βAla(N-(4-Br-phenyl))][NH(CH2)8CO][Tle][Hyp]-{NHBn(4-(4-Me-thiazol-5-yl))}) | DC50 (read-out: DC50 S6 MB231, MB231 cells): > 10 µM
> 10 | CC(C)(C)[C@H](NC(=O)c1cc2cc(C(F)(F)P(=O)(O)O)ccc2s1)C(=O)N1C[C@@H](OCC(=O)NCCCC#Cc2ccc3c(c2)C(=O)N(C2CCC(=O)NC2=O)C3=O)C[C@H]1C(=O)N1CCC[C@H](c2ccccc2)C1 (stereo partly drawn) [Compound 498, ((2-(((2S)-1-((2S,4S)-4-(2-((5-(2-(2,6-dioxopiperidin-3-yl)-1,3-dioxoisoindolin-5-yl)pent-4-yn-1-yl)amino)-2-oxoethoxy)-2-((R)-3-phenylpiperidine-1-carbonyl)pyrrolidin-1-yl)-3,3-dimethyl-1-oxobutan-2-yl)carbamoyl)benzo[b]thiophen-5-yl)difluoromethyl)phosphonic acid] | 
> 10 | CC(C)(C)c1ccc(C[C@H](NC(=O)c2cc3cc(C(F)(F)P(=O)(O)O)ccc3s2)C(=O)N2C[C@@H](OCCCCCC(=O)N3Cc4cc5c(cc4C3)C(=O)N(C3CCC(=O)NC3=O)C5)C[C@H]2C(=O)N2CCO[C@H](c3ccccc3)C2)cc1 (stereo partly drawn) [Compound 591, ((2-(((2S)-3-(4-(tert-butyl)phenyl)-1-((2S,4S)-4-((6-(6-(2,6-dioxopiperidin-3-yl)-5-oxo-3,5,6,7-tetrahydropyrrolo[3,4-f]isoindol-2(1H)-yl)-6-oxohexyl)oxy)-2-((R)-2-phenylmorpholine-4-carbonyl)pyrrolidin-1-yl)-1-oxopropan-2-yl)carbamoyl)benzo[b]thiophen-5-yl)difluoromethyl)phosphonic acid] | 
> 10 | CC(C)(C)[C@H](NC(=O)c1cc2cc(C(F)(F)P(=O)(O)O)ccc2s1)C(=O)N1Cc2cc(OCC(=O)NCCCC#Cc3cccc4c3C(=O)N(C3CCC(=O)NC3=O)C4=O)ccc2C[C@H]1C(=O)N1CCC[C@H](c2ccccc2)C1 (stereo partly drawn) [Compound 553, ((2-(((2S)-1-((3S)-7-(2-((5-(2-(2,6-dioxopiperidin-3-yl)-1,3-dioxoisoindolin-4-yl)pent-4-yn-1-yl)amino)-2-oxoethoxy)-3-((R)-3-phenylpiperidine-1-carbonyl)-3,4-dihydroisoquinolin-2(1H)-yl)-3,3-dimethyl-1-oxobutan-2-yl)carbamoyl)benzo[b]thiophen-5-yl)difluoromethyl)phosphonic acid] | 

Structure (SMILES) | DC50 [1] [µM] | other results
Cc1ncsc1-c1ccc([C@H](C)NC(=O)[C@@H]2C[C@@H](O)CN2C(=O)[C@@H](NC(=O)CCCCCCNC(=O)CC(=O)N2CCN(C(=O)[C@@H](NC(=O)c3cc4cc(C(F)(F)P(=O)(O)O)ccc4s3)C(C)(C)C)[C@H](C(=O)N3CCO[C@H](c4ccccc4)C3)C2)C(C)(C)C)cc1 [Compound 448, (difluoro(2-(((S)-1-((S)-4-(3-((7-(((S)-1-((2S,4R)-4-hydroxy-2-(((S)-1-(4-(4-methylthiazol-5-yl)phenyl)ethyl)carbamoyl)pyrrolidin-1-yl)-3,3-dimethyl-1-oxobutan-2-yl)amino)-7-oxoheptyl)amino)-3-oxopropanoyl)-2-((R)-2-phenylmorpholine-4-carbonyl)piperazin-1-yl)-3,3-dimethyl-1-oxobutan-2-yl)carbamoyl)benzo[b]thiophen-5-yl)methyl)phosphonic acid] | > 10 | DC50 [2]: > 10 µM
CC(C)(C)[C@H](NC(=O)c1cc2cc(C(F)(F)P(=O)(O)O)ccc2s1)C(=O)N1CCN(C(=O)CC(=O)NCCCCCC#Cc2cccc3c2C(=O)N(C2CCC(=O)NC2=O)C3=O)C[C@H]1C(=O)N1CCO[C@H](c2ccccc2)C1 (stereo partly drawn) [Compound 515, ((2-(((2S)-1-((2S)-4-(3-((7-(2-(2,6-dioxopiperidin-3-yl)-1,3-dioxoisoindolin-4-yl)hept-6-yn-1-yl)amino)-3-oxopropanoyl)-2-((R)-2-phenylmorpholine-4-carbonyl)piperazin-1-yl)-3,3-dimethyl-1-oxobutan-2-yl)carbamoyl)benzo[b]thiophen-5-yl)difluoromethyl)phosphonic acid] | > 10 | 
CC(C)(C)[C@H](NC(=O)c1cc2cc(C(F)(F)P(=O)(O)O)ccc2s1)C(=O)N1CCN(C(=O)CC(=O)NCCCC#Cc2cccc3c2C(=O)N(C2CCC(=O)NC2=O)C3=O)C[C@H]1C(=O)N1CCC[C@H](c2ccccc2)C1 (stereo partly drawn) [Compound 525, ((2-(((2S)-1-((2S)-4-(3-((5-(2-(2,6-dioxopiperidin-3-yl)-1,3-dioxoisoindolin-4-yl)pent-4-yn-1-yl)amino)-3-oxopropanoyl)-2-((R)-3-phenylpiperidine-1-carbonyl)piperazin-1-yl)-3,3-dimethyl-1-oxobutan-2-yl)carbamoyl)benzo[b]thiophen-5-yl)difluoromethyl)phosphonic acid] | > 10 | 
Cc1ncsc1-c1ccc([C@H](C)NC(=O)[C@@H]2C[C@@H](O)CN2C(=O)[C@@H](NC(=O)CCCCCCNC(=O)COc2ccc3c(c2)CN(C(=O)[C@@H](NC(=O)c2cc4cc(C(F)(F)P(=O)(O)O)ccc4s2)C(C)(C)C)[C@H](C(=O)N2CCO[C@H](c4ccccc4)C2)C3)C(C)(C)C)cc1 [Compound 466, (difluoro(2-(((S)-1-((S)-7-(2-((7-(((S)-1-((2S,4R)-4-hydroxy-2-(((S)-1-(4-(4-methylthiazol-5-yl)phenyl)ethyl)carbamoyl)pyrrolidin-1-yl)-3,3-dimethyl-1-oxobutan-2-yl)amino)-7-oxoheptyl)amino)-2-oxoethoxy)-3-((R)-2-phenylmorpholine-4-carbonyl)-3,4-dihydroisoquinolin-2(1H)-yl)-3,3-dimethyl-1-oxobutan-2-yl)carbamoyl)benzo[b]thiophen-5-yl)methyl)phosphonic acid] | > 10 | DC50 [2]: > 10 µM
